Assay results reported in ChEMBL document CHEMBL5649169 (ChemMedChem, 2018).

How the values were obtained:
[1] = target: Small ribosomal subunit protein uS17 (Homo sapiens) (UniProt P62280)
[2] = target: Peroxiredoxin-1 (Homo sapiens) (UniProt Q06830)
[3] = organism: Homo sapiens
[4] = target: Bromodomain adjacent to zinc finger domain protein 1A (Homo sapiens) (UniProt Q9NRL2)
[5] = target: Large ribosomal subunit protein uL2 (Homo sapiens) (UniProt P62917)
[6] = target: Small ribosomal subunit protein uS10 (Homo sapiens) (UniProt P60866)
[7] = target: Signal recognition particle 14 kDa protein (Homo sapiens) (UniProt P37108)
Sequence of Signal recognition particle 14 kDa protein (Homo sapiens) (P37108 whole entry): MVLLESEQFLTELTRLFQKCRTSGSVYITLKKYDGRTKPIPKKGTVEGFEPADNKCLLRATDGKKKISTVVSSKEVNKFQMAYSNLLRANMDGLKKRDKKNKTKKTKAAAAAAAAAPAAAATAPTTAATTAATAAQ

[8] = target: Actin-related protein 2/3 complex subunit 4 (Homo sapiens) (UniProt P59998)
[9] = target: Vitamin K epoxide reductase complex subunit 1-like protein 1 (Homo sapiens) (UniProt Q8N0U8)
[10] = target: RNA-binding protein 28 (Homo sapiens) (UniProt Q9NW13)
[11] = target: Large ribosomal subunit protein uL29 (Homo sapiens) (UniProt P42766)
[12] = target: Ezrin (Homo sapiens) (UniProt P15311)
[13] = target: Elongation factor 1-gamma (Homo sapiens) (UniProt P26641)
Sequence of Elongation factor 1-gamma (Homo sapiens) (P26641 whole entry): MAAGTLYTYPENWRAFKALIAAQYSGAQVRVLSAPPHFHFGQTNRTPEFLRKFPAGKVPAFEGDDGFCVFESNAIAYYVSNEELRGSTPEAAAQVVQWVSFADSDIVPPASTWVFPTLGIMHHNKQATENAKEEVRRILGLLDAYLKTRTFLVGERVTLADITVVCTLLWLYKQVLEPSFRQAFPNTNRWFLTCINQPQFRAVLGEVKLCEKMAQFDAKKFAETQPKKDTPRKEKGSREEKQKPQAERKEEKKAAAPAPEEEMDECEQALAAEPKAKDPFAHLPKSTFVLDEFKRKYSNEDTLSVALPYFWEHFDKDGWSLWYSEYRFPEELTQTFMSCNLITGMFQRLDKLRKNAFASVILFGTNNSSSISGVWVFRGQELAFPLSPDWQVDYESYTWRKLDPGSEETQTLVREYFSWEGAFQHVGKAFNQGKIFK

[14] = target: Glutathione S-transferase P (Homo sapiens) (UniProt P09211)
Sequence of Glutathione S-transferase P (Homo sapiens) (P09211 2-210 limits assumed): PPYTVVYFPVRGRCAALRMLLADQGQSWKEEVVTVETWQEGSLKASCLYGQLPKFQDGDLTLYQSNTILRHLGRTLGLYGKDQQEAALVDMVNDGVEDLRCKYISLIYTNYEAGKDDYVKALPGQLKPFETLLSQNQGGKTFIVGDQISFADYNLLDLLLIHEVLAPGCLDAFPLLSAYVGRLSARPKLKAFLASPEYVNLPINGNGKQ

[15] = organism: Homo sapiens; remark: listed apart in the source
[16] = target: LIM domain kinase 1 (Homo sapiens) (UniProt P53667)
[17] = target: Casein kinase II subunit alpha' (Homo sapiens) (UniProt P19784)
[18] = target: UBX domain-containing protein 1 (Homo sapiens) (UniProt Q04323)
[19] = target: Solute carrier family 35 member E1 (Homo sapiens) (UniProt Q96K37)
Sequence of Solute carrier family 35 member E1 (Homo sapiens) (Q96K37 whole entry): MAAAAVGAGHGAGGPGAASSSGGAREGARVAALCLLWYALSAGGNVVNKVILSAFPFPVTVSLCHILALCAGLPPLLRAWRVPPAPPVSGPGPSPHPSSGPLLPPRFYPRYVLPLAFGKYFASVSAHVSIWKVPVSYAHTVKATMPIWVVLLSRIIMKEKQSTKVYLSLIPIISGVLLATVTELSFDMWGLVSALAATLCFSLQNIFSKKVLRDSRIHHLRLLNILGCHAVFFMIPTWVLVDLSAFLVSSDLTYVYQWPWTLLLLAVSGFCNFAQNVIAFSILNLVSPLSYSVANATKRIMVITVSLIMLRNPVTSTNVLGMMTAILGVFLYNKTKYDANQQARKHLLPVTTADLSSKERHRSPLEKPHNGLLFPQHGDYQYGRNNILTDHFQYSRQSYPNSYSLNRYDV

[20] = target: Arginine--tRNA ligase, cytoplasmic (Homo sapiens) (UniProt P54136)
[21] = target: AP-2 complex subunit mu (Homo sapiens) (UniProt Q96CW1)
[22] = target: Pyruvate dehydrogenase E1 component subunit beta, mitochondrial (Homo sapiens) (UniProt P11177)
[23] = target: Activin receptor type-2B (Homo sapiens) (UniProt Q13705)
Sequence of Activin receptor type-2B (Homo sapiens) (Q13705 whole entry): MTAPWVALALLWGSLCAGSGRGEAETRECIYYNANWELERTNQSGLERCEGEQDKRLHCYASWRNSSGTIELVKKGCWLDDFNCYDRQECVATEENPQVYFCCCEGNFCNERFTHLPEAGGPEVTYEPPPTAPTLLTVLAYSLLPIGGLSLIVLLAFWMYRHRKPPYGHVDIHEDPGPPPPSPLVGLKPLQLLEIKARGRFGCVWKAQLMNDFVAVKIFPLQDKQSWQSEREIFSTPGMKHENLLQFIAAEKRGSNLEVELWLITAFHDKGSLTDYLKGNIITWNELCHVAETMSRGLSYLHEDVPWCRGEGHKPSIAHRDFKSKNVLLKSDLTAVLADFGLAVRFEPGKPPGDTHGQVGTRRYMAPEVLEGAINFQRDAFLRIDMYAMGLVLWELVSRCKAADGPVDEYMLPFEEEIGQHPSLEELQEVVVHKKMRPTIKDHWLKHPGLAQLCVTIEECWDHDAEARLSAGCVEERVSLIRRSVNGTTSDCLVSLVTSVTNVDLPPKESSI

[24] = target: Double-stranded RNA-binding protein Staufen homolog 1 (Homo sapiens) (UniProt O95793)
[25] = target: POTE ankyrin domain family member E (Homo sapiens) (UniProt Q6S8J3)
[26] = target: Vacuolar protein sorting-associated protein 35 (Homo sapiens) (UniProt Q96QK1)
[27] = target: Pyruvate kinase PKM (Homo sapiens) (UniProt P14618)
Sequence of Pyruvate kinase PKM (Homo sapiens) (P14618 2-531 limits assumed): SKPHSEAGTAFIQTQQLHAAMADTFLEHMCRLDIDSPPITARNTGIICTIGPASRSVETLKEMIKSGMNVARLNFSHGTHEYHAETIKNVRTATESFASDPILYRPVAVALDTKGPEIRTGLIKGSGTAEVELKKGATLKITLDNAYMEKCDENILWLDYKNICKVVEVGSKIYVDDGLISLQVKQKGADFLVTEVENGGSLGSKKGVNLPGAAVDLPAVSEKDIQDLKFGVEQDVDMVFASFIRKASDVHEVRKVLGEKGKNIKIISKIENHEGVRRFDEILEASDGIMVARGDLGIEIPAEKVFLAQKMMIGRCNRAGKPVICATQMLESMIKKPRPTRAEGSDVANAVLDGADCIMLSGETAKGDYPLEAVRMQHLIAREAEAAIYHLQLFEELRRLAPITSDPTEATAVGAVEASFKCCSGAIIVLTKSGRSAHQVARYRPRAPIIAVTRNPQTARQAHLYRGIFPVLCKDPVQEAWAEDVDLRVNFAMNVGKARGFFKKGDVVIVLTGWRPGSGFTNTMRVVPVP

[28] = target: Cyclin-dependent kinase 7 (Homo sapiens) (UniProt P50613)
Sequence of Cyclin-dependent kinase 7 (Homo sapiens) (P50613 whole entry): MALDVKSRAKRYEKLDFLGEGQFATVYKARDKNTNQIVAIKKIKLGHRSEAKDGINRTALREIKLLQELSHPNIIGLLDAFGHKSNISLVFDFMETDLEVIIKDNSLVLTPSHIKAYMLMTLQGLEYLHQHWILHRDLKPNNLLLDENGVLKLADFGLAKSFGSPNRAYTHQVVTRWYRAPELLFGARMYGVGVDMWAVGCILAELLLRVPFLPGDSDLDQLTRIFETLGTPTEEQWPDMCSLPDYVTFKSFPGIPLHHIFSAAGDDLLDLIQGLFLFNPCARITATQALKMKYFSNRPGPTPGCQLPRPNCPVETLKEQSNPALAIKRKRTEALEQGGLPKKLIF

[29] = target: GSK3B-interacting protein (Homo sapiens) (UniProt Q9P0R6)
[30] = target: Platelet-derived growth factor receptor beta (Homo sapiens) (UniProt P09619)
Sequence of Platelet-derived growth factor receptor beta (Homo sapiens) (P09619 whole entry): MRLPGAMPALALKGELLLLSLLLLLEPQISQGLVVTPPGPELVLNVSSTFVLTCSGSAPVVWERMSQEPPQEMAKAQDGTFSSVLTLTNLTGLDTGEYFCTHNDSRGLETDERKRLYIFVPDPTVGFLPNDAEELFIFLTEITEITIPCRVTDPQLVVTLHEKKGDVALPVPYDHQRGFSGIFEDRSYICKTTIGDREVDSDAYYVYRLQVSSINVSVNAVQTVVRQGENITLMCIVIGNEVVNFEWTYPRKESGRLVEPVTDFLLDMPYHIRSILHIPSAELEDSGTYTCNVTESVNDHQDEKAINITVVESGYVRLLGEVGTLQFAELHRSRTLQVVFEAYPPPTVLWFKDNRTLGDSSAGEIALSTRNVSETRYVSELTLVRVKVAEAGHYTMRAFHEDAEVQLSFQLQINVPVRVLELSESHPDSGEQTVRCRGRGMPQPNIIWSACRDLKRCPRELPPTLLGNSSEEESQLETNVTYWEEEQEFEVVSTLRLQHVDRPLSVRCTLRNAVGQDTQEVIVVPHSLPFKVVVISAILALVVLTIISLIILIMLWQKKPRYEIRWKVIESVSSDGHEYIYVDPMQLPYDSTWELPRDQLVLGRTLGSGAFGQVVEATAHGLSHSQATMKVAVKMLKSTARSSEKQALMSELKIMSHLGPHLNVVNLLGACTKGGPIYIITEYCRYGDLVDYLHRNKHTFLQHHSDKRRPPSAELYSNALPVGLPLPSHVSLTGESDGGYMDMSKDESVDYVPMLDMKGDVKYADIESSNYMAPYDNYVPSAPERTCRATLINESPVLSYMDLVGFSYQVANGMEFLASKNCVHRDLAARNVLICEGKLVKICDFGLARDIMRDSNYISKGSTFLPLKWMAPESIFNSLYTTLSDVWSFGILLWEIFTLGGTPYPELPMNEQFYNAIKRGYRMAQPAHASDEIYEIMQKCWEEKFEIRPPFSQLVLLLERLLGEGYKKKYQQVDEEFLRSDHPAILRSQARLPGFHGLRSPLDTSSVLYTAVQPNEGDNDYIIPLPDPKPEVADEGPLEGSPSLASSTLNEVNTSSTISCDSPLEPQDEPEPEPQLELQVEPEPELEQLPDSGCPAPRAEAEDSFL

[31] = target: Fatty acid synthase (Homo sapiens) (UniProt P49327)
[32] = target: 60 kDa heat shock protein, mitochondrial (Homo sapiens) (UniProt P10809)
[33] = target: Serine/threonine-protein kinase SIK3 (Homo sapiens) (UniProt Q9Y2K2)
[34] = target: WD repeat-containing protein 5 (Homo sapiens) (UniProt P61964)
[35] = target: Threonine--tRNA ligase 1, cytoplasmic (Homo sapiens) (UniProt P26639)
[36] = target: Heterogeneous nuclear ribonucleoprotein D0 (Homo sapiens) (UniProt Q14103)
Sequence of Heterogeneous nuclear ribonucleoprotein D0 (Homo sapiens) (Q14103 whole entry): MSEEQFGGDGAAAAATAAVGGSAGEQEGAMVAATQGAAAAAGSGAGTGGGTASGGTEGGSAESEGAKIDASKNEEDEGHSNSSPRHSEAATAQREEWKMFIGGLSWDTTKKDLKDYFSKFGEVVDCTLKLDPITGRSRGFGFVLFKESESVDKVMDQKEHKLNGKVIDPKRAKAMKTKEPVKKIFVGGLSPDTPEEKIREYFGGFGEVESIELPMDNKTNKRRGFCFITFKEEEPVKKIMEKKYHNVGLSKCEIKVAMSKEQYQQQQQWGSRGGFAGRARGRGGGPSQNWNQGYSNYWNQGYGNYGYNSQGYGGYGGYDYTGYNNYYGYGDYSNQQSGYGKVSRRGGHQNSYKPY

[37] = target: Nuclear pore complex protein Nup93 (Homo sapiens) (UniProt Q8N1F7)
[38] = target: Mitogen-activated protein kinase kinase kinase 20 (Homo sapiens) (UniProt Q9NYL2)
Sequence of Mitogen-activated protein kinase kinase kinase 20 (Homo sapiens) (Q9NYL2 2-800 limits assumed): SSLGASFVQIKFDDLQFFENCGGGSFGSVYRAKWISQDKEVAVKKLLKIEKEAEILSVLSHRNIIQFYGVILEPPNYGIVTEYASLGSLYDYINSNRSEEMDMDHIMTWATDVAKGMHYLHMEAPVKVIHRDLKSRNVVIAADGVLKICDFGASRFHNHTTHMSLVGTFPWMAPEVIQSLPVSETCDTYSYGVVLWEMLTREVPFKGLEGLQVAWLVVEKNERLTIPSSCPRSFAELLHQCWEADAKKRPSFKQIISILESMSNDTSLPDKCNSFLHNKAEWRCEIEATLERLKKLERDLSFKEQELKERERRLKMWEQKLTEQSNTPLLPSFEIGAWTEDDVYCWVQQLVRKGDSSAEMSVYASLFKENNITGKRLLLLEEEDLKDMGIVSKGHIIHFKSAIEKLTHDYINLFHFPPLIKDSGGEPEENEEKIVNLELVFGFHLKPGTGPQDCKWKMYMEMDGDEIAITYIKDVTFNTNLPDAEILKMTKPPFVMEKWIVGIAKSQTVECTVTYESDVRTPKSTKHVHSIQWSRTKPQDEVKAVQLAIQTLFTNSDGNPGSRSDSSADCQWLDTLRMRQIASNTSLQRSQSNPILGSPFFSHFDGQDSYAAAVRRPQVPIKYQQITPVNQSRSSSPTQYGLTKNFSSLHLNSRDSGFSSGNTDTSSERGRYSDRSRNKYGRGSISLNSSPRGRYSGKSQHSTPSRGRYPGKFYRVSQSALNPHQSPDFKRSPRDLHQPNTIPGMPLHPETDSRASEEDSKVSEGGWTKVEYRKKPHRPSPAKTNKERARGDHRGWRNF

[39] = target: Minor histocompatibility antigen H13 (Homo sapiens) (UniProt Q8TCT9)
[40] = target: Polyadenylate-binding protein 1 (Homo sapiens) (UniProt P11940)
[41] = target: Large ribosomal subunit protein eL13 (Homo sapiens) (UniProt P26373)
[42] = target: DnaJ homolog subfamily A member 3, mitochondrial (Homo sapiens) (UniProt Q96EY1)
[43] = target: Endoplasmin (Homo sapiens) (UniProt P14625)
[44] = target: PCI domain-containing protein 2 (Homo sapiens) (UniProt Q5JVF3)
[45] = target: Phosphatidylserine synthase 1 (Homo sapiens) (UniProt P48651)
[46] = target: Spectrin beta chain, non-erythrocytic 1 (Homo sapiens) (UniProt Q01082)
[47] = target: Small ribosomal subunit protein mS23 (Homo sapiens) (UniProt Q9Y3D9)
Also: assay method not described here.

With `Cc1ccc(C(=O)Nc2cccc(C(F)(F)F)c2)cc1Nc1nc(-c2cccnc2)nc2c1cnn2C` as the compound, how does the ED50 [1] read?
Its ED50 is 0.0251 µM.

What about the ED50 [2] of the same compound?
The ED50 was 0.0459 µM.

And the ED50 [3]?
Its ED50 is 1.18 µM.

And the ED50 [4]?
The ED50 was 0.532 µM.

And the ED50 [5]?
Its ED50 is 0.0503 µM.

What about the ED50 [6] of the same compound?
The ED50 was 0.371 µM.

And the ED50 [7]?
Its ED50 is 20.3 µM.

What about the ED50 [8] of the same compound?
Its ED50 is 18.9 µM.

And the ED50 [9]?
The ED50 was 5.89 µM.

What about the ED50 [10] of the same compound?
Its ED50 is 0.021 µM.

What about the ED50 [11] of the same compound?
Its ED50 is 64.9 µM.

And the ED50 [12]?
The ED50 was 7.29 µM.

What about the ED50 [13] of the same compound?
The ED50 was 0.0114 µM.

What about the ED50 [14] of the same compound?
Its ED50 is 1700 µM.

What about the ED50 [15] of the same compound?
The ED50 was 49.3 µM.

And the ED50 [16]?
The ED50 was 0.772 µM.

And the ED50 [17]?
Its ED50 is 3.31 µM.

And the ED50 [18]?
Its ED50 is 30.7 µM.

And the ED50 [19]?
The ED50 was 0.00439 µM.

And the ED50 [20]?
Its ED50 is 0.886 µM.

What about the ED50 [21] of the same compound?
The ED50 was 5.13 µM.

And the ED50 [22]?
The ED50 was 3.33 µM.

And the ED50 [23]?
The ED50 was 4.77 µM.

What about the ED50 [24] of the same compound?
Its ED50 is 2.27 µM.

What about the ED50 [25] of the same compound?
The ED50 was 11.7 µM.

What about the ED50 [26] of the same compound?
The ED50 was 15.7 µM.

What about the ED50 [27] of the same compound?
Its ED50 is 5.83 µM.

What about the ED50 [28] of the same compound?
Its ED50 is 0.0338 µM.

And the ED50 [29]?
Its ED50 is 0.0291 µM.

And the ED50 [30]?
The ED50 was 0.000102 µM.

What about the ED50 [31] of the same compound?
The ED50 was 0.0377 µM.

And the ED50 [32]?
The ED50 was 0.0041 µM.

What about the ED50 [33] of the same compound?
The ED50 was 112 µM.

And the ED50 [34]?
The ED50 was 0.0527 µM.

What about the ED50 [35] of the same compound?
The ED50 was 0.00531 µM.

What about the ED50 [36] of the same compound?
Its ED50 is 1.15 µM.

What about the ED50 [37] of the same compound?
The ED50 was 3.25 µM.

What about the ED50 [38] of the same compound?
Its ED50 is 0.907 µM.

And the ED50 [39]?
Its ED50 is 9.93 µM.

What about the ED50 [40] of the same compound?
The ED50 was 3.36 µM.

What about the ED50 [41] of the same compound?
The ED50 was 13.9 µM.

What about the ED50 [42] of the same compound?
Its ED50 is 0.00101 µM.

And the ED50 [43]?
The ED50 was 3.47 µM.

What about the ED50 [44] of the same compound?
Its ED50 is 1.92 µM.

And the ED50 [45]?
The ED50 was 6.64 µM.

And the ED50 [46]?
The ED50 was 1.61 µM.

What about the ED50 [47] of the same compound?
The ED50 was 20.2 µM.

How did the ED50 [1] turn out when `Cc1ccc(C(=O)Nc2cccc(C(F)(F)F)c2)cc1Nc1nc(-c2cccnc2)nc2nn(C)cc12` was run?
Its ED50 is 0.0189 µM.

And the ED50 [2]?
The ED50 was 9.72 µM.

What about the ED50 [3] of the same compound?
Its ED50 is 0.131 µM.

What about the ED50 [4] of the same compound?
The ED50 was 0.0186 µM.

And the ED50 [5]?
Its ED50 is 0.121 µM.

What about the ED50 [6] of the same compound?
The ED50 was 3.63 µM.

What about the ED50 [7] of the same compound?
Its ED50 is 3.59 µM.

What about the ED50 [8] of the same compound?
Its ED50 is 15.8 µM.

And the ED50 [9]?
Its ED50 is 2.51 µM.

What about the ED50 [10] of the same compound?
Its ED50 is 1.75 µM.

And the ED50 [11]?
Its ED50 is 0.00771 µM.

What about the ED50 [12] of the same compound?
The ED50 was 0.0827 µM.

What about the ED50 [13] of the same compound?
The ED50 was 0.000491 µM.

And the ED50 [14]?
Its ED50 is 58.7 µM.

What about the ED50 [15] of the same compound?
Its ED50 is 0.631 µM.

And the ED50 [16]?
The ED50 was 1.53 µM.

And the ED50 [17]?
Its ED50 is 110 µM.

What about the ED50 [18] of the same compound?
The ED50 was 32.9 µM.

And the ED50 [19]?
Its ED50 is 55.3 µM.

What about the ED50 [20] of the same compound?
The ED50 was 0.443 µM.

What about the ED50 [21] of the same compound?
Its ED50 is 211 µM.

What about the ED50 [22] of the same compound?
Its ED50 is 7.18 µM.

What about the ED50 [23] of the same compound?
The ED50 was 0.00453 µM.

What about the ED50 [24] of the same compound?
Its ED50 is 0.0134 µM.

What about the ED50 [25] of the same compound?
The ED50 was 2.45 µM.

What about the ED50 [26] of the same compound?
The ED50 was 0.0256 µM.

And the ED50 [27]?
The ED50 was 0.174 µM.

What about the ED50 [28] of the same compound?
Its ED50 is 0.0647 µM.

What about the ED50 [29] of the same compound?
The ED50 was 1.81 µM.

What about the ED50 [30] of the same compound?
The ED50 was 10 µM.

What about the ED50 [31] of the same compound?
Its ED50 is 0.107 µM.

And the ED50 [32]?
The ED50 was 0.148 µM.

What about the ED50 [33] of the same compound?
The ED50 was 10.4 µM.

And the ED50 [34]?
Its ED50 is 0.0363 µM.

What about the ED50 [35] of the same compound?
The ED50 was 0.0576 µM.

And the ED50 [36]?
Its ED50 is 0.0267 µM.

What about the ED50 [37] of the same compound?
The ED50 was 1.55 µM.

And the ED50 [38]?
Its ED50 is 7.75 µM.

What about the ED50 [39] of the same compound?
Its ED50 is 10.6 µM.

What about the ED50 [40] of the same compound?
Its ED50 is 10.7 µM.

And the ED50 [41]?
The ED50 was 0.0196 µM.

And the ED50 [42]?
Its ED50 is 0.193 µM.

And the ED50 [43]?
The ED50 was 0.0559 µM.

And the ED50 [44]?
Its ED50 is 1450 µM.

What about the ED50 [45] of the same compound?
The ED50 was 0.0845 µM.

What about the ED50 [46] of the same compound?
Its ED50 is 0.0908 µM.

What about the ED50 [47] of the same compound?
The ED50 was 11.4 µM.
